Where “and” joins values, the source holds several entries; their conditions need not be identical. Identical values can stand only once. Toxic doses and inconclusive results are not listed.
Tested on: P388 leukemia ip, CD2F1 mice, survival T/C
Assay: NCI In Vivo Anticancer Drug Screen. Data for tumor model P388 Leukemia (intraperitoneal) in CD2F1 (CDF1) mice
Conditions: endpoint: median survival time, higher = longer survival
Procedure, shortened: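 Mice carrying the transplanted tumor received test compound or vehicle. Survival was recorded in each group, and the value is the treated-group measurement divided by that of the vehicle-treated control group.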

[1] = dose: 100.0 mg/kg/injection, schedule: Q04DX003 (ip), vehicle: saline with Tween-80
[2] = dose: 50.0 mg/kg/injection, schedule: Q01DX005 (ip), vehicle: saline
[3] = dose: 100.0 mg/kg/injection, schedule: Q01DX005 (ip), vehicle: saline
[4] = dose: 50.0 mg/kg/injection, schedule: Q01DX009 (ip), vehicle: saline with Tween-80
[5] = dose: 100.0 mg/kg/injection, schedule: Q01DX009 (ip), vehicle: saline with Tween-80
[6] = dose: 200.0 mg/kg/injection, schedule: Q01DX009 (ip), vehicle: saline with Tween-80
[7] = dose: 60.0 mg/kg/injection, schedule: Q01DX005 (ip), vehicle: saline with Tween-80
[8] = dose: 120.0 mg/kg/injection, schedule: Q01DX005 (ip), vehicle: saline with Tween-80
[9] = dose: 240.0 mg/kg/injection, schedule: Q01DX005 (ip), vehicle: saline with Tween-80
[10] = dose: 50.0 mg/kg/injection, schedule: Q01DX005 (ip), vehicle: Klucel (hydroxypropylcellulose) (HPC)
[11] = dose: 100.0 mg/kg/injection, schedule: Q01DX005 (ip), vehicle: Klucel (hydroxypropylcellulose) (HPC)
[12] = dose: 200.0 mg/kg/injection, schedule: Q01DX005 (ip), vehicle: Klucel (hydroxypropylcellulose) (HPC)
[13] = dose: 60.0 mg/kg/injection, schedule: Q01DX005 (ip), vehicle: saline
[14] = dose: 50.0 mg/kg/injection, schedule: Q01DX005 (ip), vehicle: saline with Tween-80
[15] = dose: 100.0 mg/kg/injection, schedule: Q01DX005 (ip), vehicle: saline with Tween-80
[16] = dose: 200.0 mg/kg/injection, schedule: Q01DX005 (ip), vehicle: saline with Tween-80
[17] = dose: 60.0 mg/kg/injection, schedule: Q01DX005 (ip), vehicle: Klucel (hydroxypropylcellulose) (HPC)
[18] = dose: 120.0 mg/kg/injection, schedule: Q01DX005 (ip), vehicle: Klucel (hydroxypropylcellulose) (HPC)
[19] = dose: 120.0 mg/kg/injection, schedule: Q01DX005 (ip), vehicle: saline
[20] = dose: 240.0 mg/kg/injection, schedule: Q01DX005 (ip), vehicle: saline

Question: What does the source list for `CCOC(=O)C12C=CC(=O)NC1(OC)OC(C)(C)C2` (stereo unspecified)?
Answer: T/C (dose: 20.0 mg/kg/injection, schedule: Q01DX001 (ip), vehicle: Klucel (hydroxypropylcellulose) (HPC)): 95 % of control; T/C (dose: 40.0 mg/kg/injection, schedule: Q01DX001 (ip), vehicle: Klucel (hydroxypropylcellulose) (HPC)): 93 % of control; T/C (dose: 80.0 mg/kg/injection, schedule: Q01DX001 (ip), vehicle: Klucel (hydroxypropylcellulose) (HPC)): 89 % of control

Question: `O=[n+]1ccn([O-])c2ccccc21.[O-][Cl+3]([O-])([O-])O.[Zn+2]` was tested. Which T/C [1] did it give?
Answer: 98 % of control

Question: Which results are given for `OC1CCC(O)C1(Cl)Cl` (stereo unspecified)?
Answer: T/C (dose: 25.0 mg/kg/injection, schedule: Q04DX003 (ip), vehicle: saline): 99 % of control and 96 % of control; T/C (dose: 50.0 mg/kg/injection, schedule: Q04DX003 (ip), vehicle: saline): 98 % of control and 107 % of control; T/C (dose: 100.0 mg/kg/injection, schedule: Q04DX003 (ip), vehicle: saline): 98 % of control and 103 % of control and 118 % of control; T/C (dose: 200.0 mg/kg/injection, schedule: Q04DX003 (ip), vehicle: saline): 98 % of control and 101 % of control and 124 % of control; T/C (dose: 400.0 mg/kg/injection, schedule: Q04DX003 (ip), vehicle: saline): 117 % of control

Question: What does the source list for `CC(C)Sc1ncn[nH]1`?
Answer: T/C [2]: 99 % of control; T/C [3]: 100 % of control; T/C (dose: 200.0 mg/kg/injection, schedule: Q01DX005 (ip), vehicle: saline): 102 % of control

Question: What does the source list for `Nc1nc(N)c2nc(Sc3ccc(Cl)cc3)c(=O)[nH]c2n1`?
Answer: T/C [4]: 97 % of control; T/C [5]: 91 % of control; T/C [6]: 105 % of control

Question: Which T/C (dose: 12.5 mg/kg/injection, schedule: Q01DX009 (ip), vehicle: saline with Tween-80) does the source give for `COC1/C=C/OC2(C)Oc3c(C)c(O)c4c(O)c(c(/C=N/N(C)C(C)C(O)c5ccccc5)c(O)c4c3C2=O)NC(=O)C(C)=C/C=C/C(C)C(O)C(C)C(O)C(C)C(OC(C)=O)C1C` (stereo unspecified) here?
Answer: 120 % of control

Question: What about the T/C (dose: 25.0 mg/kg/injection, schedule: Q01DX009 (ip), vehicle: saline with Tween-80) of the same compound?
Answer: 116 % of control

Question: What about the T/C [4] of the same compound?
Answer: 109 % of control and 116 % of control

Question: And the T/C [5]?
Answer: 111 % of control

Question: Which results are given for `CCOc1cccc2c(NCCCCCCCCNc3c4ccccc4nc4c(OCC)cccc34)c3ccccc3nc12`?
Answer: T/C (dose: 3.75 mg/kg/injection, schedule: Q01DX009 (ip), vehicle: other): 166 % of control; T/C (dose: 7.5 mg/kg/injection, schedule: Q01DX009 (ip), vehicle: other): 157 % of control

Question: With `CCCCCCCCCCCC(C)[N+](C)(C)[O-]` (stereo unspecified) as the compound, how does the T/C (dose: 12.5 mg/kg/injection, schedule: Q01DX009 (ip), vehicle: saline) read?
Answer: 102 % of control

Question: What about the T/C (dose: 25.0 mg/kg/injection, schedule: Q01DX009 (ip), vehicle: saline) of the same compound?
Answer: 96 % of control

Question: And the T/C (dose: 50.0 mg/kg/injection, schedule: Q01DX009 (ip), vehicle: saline)?
Answer: 87 % of control and 91 % of control

Question: With `NNC(=O)C1C2c3ccccc3C(c3ccccc32)C1C(=O)O` (stereo unspecified) as the compound, how does the T/C [7] read?
Answer: 99 % of control

Question: And the T/C [8]?
Answer: 101 % of control

Question: What about the T/C [9] of the same compound?
Answer: 103 % of control

Question: What does the source list for `CC(C)Cc1cc(-c2cc(CC(C)C)[nH]n2)n[nH]1`?
Answer: T/C [7]: 106 % of control; T/C [8]: 95 % of control; T/C [9]: 100 % of control

Question: Which T/C [2] does the source give for `CCC(=O)N/C(N)=N\C(N)=O` here?
Answer: 95 % of control

Question: And the T/C [3]?
Answer: 98 % of control

Question: Which T/C [10] does the source give for `Cc1ccnc(NCCCNc2nccc(C)n2)n1` here?
Answer: 102 % of control

Question: And the T/C [11]?
Answer: 96 % of control

Question: What about the T/C [12] of the same compound?
Answer: 88 % of control

Question: How did the T/C (dose: 50.0 mg/kg/injection, schedule: Q01DX001 (ip), vehicle: saline with Tween-80) turn out when `Nc1cnccc1Nc1ccncc1` was run?
Answer: 95 % of control

Question: And the T/C (dose: 100.0 mg/kg/injection, schedule: Q01DX001 (ip), vehicle: saline with Tween-80)?
Answer: 100 % of control

Question: How did the T/C (dose: 15.0 mg/kg/injection, schedule: Q01DX005 (ip), vehicle: saline) turn out when `C/C(=N\N=C(N)N)c1c(C)nn(C(=N)N)c1C` was run?
Answer: 99 % of control

Question: And the T/C (dose: 30.0 mg/kg/injection, schedule: Q01DX005 (ip), vehicle: saline)?
Answer: 98 % of control

Question: And the T/C [13]?
Answer: 99 % of control and 111 % of control

Question: With `CCC1(/C=N/NC(N)=S)NC(=O)NC1=O` (stereo unspecified) as the compound, how does the T/C [14] read?
Answer: 93 % of control

Question: And the T/C [15]?
Answer: 89 % of control

Question: What about the T/C [16] of the same compound?
Answer: 94 % of control

Question: For `CC(=O)OC1(c2ccccc2)N=C(c2ccccc2)N=C1c1ccccc1` (stereo unspecified), which T/C [17] is on record?
Answer: 106 % of control

Question: And the T/C [18]?
Answer: 110 % of control

Question: What about the T/C (dose: 240.0 mg/kg/injection, schedule: Q01DX005 (ip), vehicle: Klucel (hydroxypropylcellulose) (HPC)) of the same compound?
Answer: 105 % of control

Question: For `CCOc1cc2c(cc1C(C)c1cc(C(C)(C)C)c(O)c(C(C)(C)C)c1)OCO2` (stereo unspecified), which T/C [14] is on record?
Answer: 100 % of control

Question: What about the T/C [15] of the same compound?
Answer: 91 % of control

Question: What about the T/C [16] of the same compound?
Answer: 88 % of control

Question: `NC(=S)n1nc(-c2cccs2)c(N=Nc2ccc(Cl)cc2)c1C(F)(F)F` was tested. Which T/C [17] did it give?
Answer: 87 % of control

Question: What about the T/C [18] of the same compound?
Answer: 93 % of control

Question: Which T/C (dose: 50.0 mg/kg/injection, schedule: Q04DX003 (ip), vehicle: saline with Tween-80) does the source give for `O=NN(CCCl)C(=O)Nc1ccc(Br)cn1` here?
Answer: 100 % of control

Question: And the T/C [5]?
Answer: 150 % of control

Question: What about the T/C [1] of the same compound?
Answer: 100 % of control

Question: And the T/C [6]?
Answer: 150 % of control

Question: And the T/C (dose: 200.0 mg/kg/injection, schedule: Q04DX003 (ip), vehicle: saline with Tween-80)?
Answer: 118 % of control

Question: Which T/C [13] does the source give for `CCN(CC)CCOC(=O)/C=C/c1ccccc1` here?
Answer: 106 % of control

Question: What about the T/C [19] of the same compound?
Answer: 107 % of control

Question: And the T/C [20]?
Answer: 102 % of control

Question: For `COc1c(Br)c2c(c([N+](=O)[O-])c1OC)C(=O)OC2`, which T/C (dose: 25.0 mg/kg/injection, schedule: Q01DX005 (ip), vehicle: Klucel (hydroxypropylcellulose) (HPC)) is on record?
Answer: 103 % of control

Question: And the T/C [10]?
Answer: 96 % of control

Question: And the T/C [11]?
Answer: 96 % of control

Question: And the T/C [12]?
Answer: 104 % of control

Question: How did the T/C [4] turn out when `O=C1C2(CC3C=CC2C3)C(=O)C12CC1C=CC2C1` (stereo unspecified) was run?
Answer: 102 % of control

Question: What about the T/C [5] of the same compound?
Answer: 100 % of control

Question: And the T/C [6]?
Answer: 103 % of control

Question: `Cc1c(C#N)c2n(c1C)CC(=O)N2` was tested. Which T/C [7] did it give?
Answer: 87 % of control

Question: And the T/C [8]?
Answer: 95 % of control

Question: For `O=C1CCCN1C1CC2c3ccccc3C1c1cccc[n+]12` (stereo unspecified), which T/C (dose: 5.0 mg/kg/injection, schedule: Q01DX009 (ip), vehicle: saline sonified) is on record?
Answer: 100 % of control

Question: And the T/C (dose: 10.0 mg/kg/injection, schedule: Q01DX009 (ip), vehicle: saline sonified)?
Answer: 100 % of control

Question: What about the T/C (dose: 20.0 mg/kg/injection, schedule: Q01DX009 (ip), vehicle: saline sonified) of the same compound?
Answer: 95 % of control

Question: With `Cc1cc(C)n(-c2ccc3nnnn3n2)n1` as the compound, how does the T/C (dose: 100.0 mg/kg/injection, schedule: Q04DX002 (ip), vehicle: saline) read?
Answer: 93 % of control

Question: And the T/C (dose: 200.0 mg/kg/injection, schedule: Q04DX002 (ip), vehicle: saline)?
Answer: 93 % of control

Question: And the T/C (dose: 400.0 mg/kg/injection, schedule: Q04DX002 (ip), vehicle: saline)?
Answer: 102 % of control

Question: `CC(C)(CC#N)c1cc(CC(C)(C)c2cc(CC(C)(C)c3cc(CC(C)(C)C4(C)OCCO4)no3)no2)no1` was tested. Which T/C (dose: 30.0 mg/kg/injection, schedule: Q01DX005 (ip), vehicle: saline with Tween-80) did it give?
Answer: 87 % of control

Question: What about the T/C [7] of the same compound?
Answer: 90 % of control and 91 % of control

Question: What about the T/C [8] of the same compound?
Answer: 86 % of control

Question: And the T/C [9]?
Answer: 87 % of control

Question: What does the source list for `C[N+](C)(C)N=P(O)(N[N+](C)(C)C)Oc1ccccc1` (stereo unspecified)?
Answer: T/C [13]: 95 % of control; T/C [19]: 100 % of control; T/C [20]: 95 % of control

Reference: PubChem BioAssay AID330 (DTP/NCI, 2004)
